Results reported in PubChem BioAssay AID330 (DTP/NCI, 2004).
Values joined by “and” are separate entries in the source; they are usually repeats but may differ in a detail not shown here. Identical values can stand only once. Inconclusive results and toxic doses are left out. The calls were made as follows: active = survival T/C of 150% or more; inactive = T/C below 125% in these data.

Test system: P388 leukemia ip, CD2F1 mice, survival T/C
Assay: NCI In Vivo Anticancer Drug Screen. Data for tumor model P388 Leukemia (intraperitoneal) in CD2F1 (CDF1) mice
Details: endpoint: median survival time, higher = longer survival
In short: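 Mice carrying the transplanted tumor received test compound or vehicle. Survival was recorded in each group, and the value is the treated-group measurement divided by that of the vehicle-treated control group.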

[1] = dose: 50.0 mg/kg/injection, schedule: Q01DX009 (ip), vehicle: saline with Tween-80
[2] = dose: 100.0 mg/kg/injection, schedule: Q01DX009 (ip), vehicle: saline with Tween-80
[3] = dose: 200.0 mg/kg/injection, schedule: Q01DX009 (ip), vehicle: saline with Tween-80
[4] = dose: 50.0 mg/kg/injection, schedule: Q01DX001 (ip), vehicle: saline
[5] = dose: 100.0 mg/kg/injection, schedule: Q01DX001 (ip), vehicle: saline
[6] = dose: 50.0 mg/kg/injection, schedule: Q01DX009 (ip), vehicle: saline
[7] = dose: 100.0 mg/kg/injection, schedule: Q01DX009 (ip), vehicle: saline
[8] = dose: 200.0 mg/kg/injection, schedule: Q01DX009 (ip), vehicle: saline

Measured: T/C

Cc1c(N)nc(C(CC(N)=O)NCC(N)C(N)=O)nc1C(=O)NC(C(=O)NC(C)C(O)CC(=O)NC(C(=O)NC(OC1OC(C)C(N)C(O)C1O)C(O)c1nc(-c2nc(C(=O)NCCCC(N)CC(=O)NCCCNCCCCN)cs2)cs1)C(C)O)C(OC1OC(CO)C(O)C(O)C1OC1OC(CO)C(O)C(OC(N)=O)C1O)c1cnc[nH]1 (configuration not stated)
inactive: dose: 0.5 mg/kg/injection, schedule: Q01DX009 (ip), vehicle: water 106 % of control | dose: 0.8 mg/kg/injection, schedule: Q01DX009 (ip), vehicle: water 113 % of control and 119 % of control | dose: 1.0 mg/kg/injection, schedule: Q01DX009 (ip), vehicle: water 113 % of control | dose: 1.3 mg/kg/injection, schedule: Q01DX009 (ip), vehicle: water 113 % of control and 97 % of control | dose: 2.0 mg/kg/injection, schedule: Q01DX009 (ip), vehicle: water 113 % of control | dose: 2.2 mg/kg/injection, schedule: Q01DX009 (ip), vehicle: water 111 % of control and 87 % of control | dose: 3.6 mg/kg/injection, schedule: Q01DX009 (ip), vehicle: water 92 % of control

COC(=O)C(NC(=O)OCc1ccccc1)C(C)O (configuration not stated)
inactive: dose: 12.5 mg/kg/injection, schedule: Q01DX009 (ip), vehicle: distilled water + Tween-80 90 % of control | dose: 25.0 mg/kg/injection, schedule: Q01DX009 (ip), vehicle: distilled water + Tween-80 102 % of control | dose: 50.0 mg/kg/injection, schedule: Q01DX009 (ip), vehicle: distilled water + Tween-80 100 % of control | dose: 100.0 mg/kg/injection, schedule: Q01DX009 (ip), vehicle: distilled water + Tween-80 105 % of control | dose: 200.0 mg/kg/injection, schedule: Q01DX009 (ip), vehicle: distilled water + Tween-80 94 % of control

CCN(C)c1cc(=O)c2c(ccc3ccccc32)o1
inactive: [1] 94 % of control | [2] 101 % of control | [3] 95 % of control

Cc1noc(C)c1C1(Br)C(Br)CCCC1Br (configuration not stated)
inactive: dose: 100.0 mg/kg/injection, schedule: Q04DX002 (ip), vehicle: saline with Tween-80 105 % of control | dose: 200.0 mg/kg/injection, schedule: Q04DX002 (ip), vehicle: saline with Tween-80 104 % of control | dose: 400.0 mg/kg/injection, schedule: Q04DX002 (ip), vehicle: saline with Tween-80 114 % of control

C/C=C1/CN2CCC34c5ccccc5N5C(=O)C(C6CC78c9ccccc9N9C(=O)C=CC(C%10CC7N6C/C%10=C/C)C98)=CC(C1CC23)C54 (configuration not stated)
inactive: dose: 10.0 mg/kg/injection, schedule: Q01DX009 (ip), vehicle: saline with Tween-80 99 % of control | dose: 20.0 mg/kg/injection, schedule: Q01DX009 (ip), vehicle: saline with Tween-80 104 % of control | dose: 40.0 mg/kg/injection, schedule: Q01DX009 (ip), vehicle: saline with Tween-80 104 % of control | dose: 80.0 mg/kg/injection, schedule: Q01DX009 (ip), vehicle: saline with Tween-80 88 % of control

Nc1c(S(=O)(=O)O)cc(Nc2cccc(CO)c2)c2c1C(=O)c1ccccc1C2=O
inactive: dose: 12.5 mg/kg/injection, schedule: Q01DX001 (ip), vehicle: saline 99 % of control | dose: 25.0 mg/kg/injection, schedule: Q01DX001 (ip), vehicle: saline 99 % of control | [4] 98 % of control | [5] 106 % of control

O=C1C(=O)C2c3ccccc3C1c1ccccc12
inactive: dose: 50.0 mg/kg/injection, schedule: Q04DX002 (ip), vehicle: suspension in saline 101 % of control | dose: 100.0 mg/kg/injection, schedule: Q04DX002 (ip), vehicle: suspension in saline 106 % of control | dose: 200.0 mg/kg/injection, schedule: Q04DX002 (ip), vehicle: suspension in saline 112 % of control

CC1=CC(=Nc2ccc(N(C)C)cc2)C=CC1=O
inactive: dose: 3.13 mg/kg/injection, schedule: Q01DX009 (ip), vehicle: saline with Tween-80 104 % of control and 115 % of control | dose: 6.25 mg/kg/injection, schedule: Q01DX009 (ip), vehicle: saline with Tween-80 107 % of control and 115 % of control | dose: 12.5 mg/kg/injection, schedule: Q01DX009 (ip), vehicle: saline with Tween-80 111 % of control and 114 % of control

CC1=C(O)C(=O)[C@@H]2O[C@@H]2C1=O
inactive: dose: 1.5 mg/kg/injection, schedule: Q01DX007 (ip), vehicle: saline 111 % of control | dose: 3.0 mg/kg/injection, schedule: Q01DX007 (ip), vehicle: saline 122 % of control | dose: 6.0 mg/kg/injection, schedule: Q01DX007 (ip), vehicle: saline 122 % of control

C[C-]=O.C[C-]=O.[C-]#[O+].[C-]#[O+].[C-]#[O+].[C-]#[O+].[Re]
inactive: dose: 12.5 mg/kg/injection, schedule: Q01DX005 (ip), vehicle: Klucel (hydroxypropylcellulose) (HPC) 101 % of control | dose: 25.0 mg/kg/injection, schedule: Q01DX005 (ip), vehicle: Klucel (hydroxypropylcellulose) (HPC) 96 % of control | dose: 50.0 mg/kg/injection, schedule: Q01DX005 (ip), vehicle: Klucel (hydroxypropylcellulose) (HPC) 93 % of control

CN=C(N)NN
inactive: dose: 25.0 mg/kg/injection, schedule: Q01DX009 (ip), vehicle: saline 101 % of control | [6] 97 % of control | [7] 93 % of control | [8] 97 % of control

CCOC1=NN(c2ccccc2)C(=O)C1
inactive: [2] 100 % of control | dose: 100.0 mg/kg/injection, schedule: Q04DX003 (ip), vehicle: saline with Tween-80 95 % of control | [3] 100 % of control | dose: 200.0 mg/kg/injection, schedule: Q04DX003 (ip), vehicle: saline with Tween-80 95 % of control | dose: 400.0 mg/kg/injection, schedule: Q01DX009 (ip), vehicle: saline with Tween-80 100 % of control | dose: 400.0 mg/kg/injection, schedule: Q04DX003 (ip), vehicle: saline with Tween-80 95 % of control

CCOC(=O)/C(C#N)=C/P(=O)(OCC)OCC
inactive: dose: 3.12 mg/kg/injection, schedule: Q04DX003 (ip), vehicle: Klucel (hydroxypropylcellulose) (HPC) 101 % of control | dose: 6.25 mg/kg/injection, schedule: Q04DX003 (ip), vehicle: Klucel (hydroxypropylcellulose) (HPC) 100 % of control | dose: 12.5 mg/kg/injection, schedule: Q04DX003 (ip), vehicle: Klucel (hydroxypropylcellulose) (HPC) 99 % of control

Nc1nc2c(c(=O)[nH]1)[N+]1=CN(c3ccc(C(=O)NC(CCC(=O)O)C(=O)O)cc3)CC1CC2 (configuration not stated)
inactive: [4] 96 % of control | dose: 50.0 mg/kg/injection, schedule: Q04DX003 (ip), vehicle: saline 97 % of control | [5] 94 % of control | dose: 100.0 mg/kg/injection, schedule: Q04DX003 (ip), vehicle: saline 100 % of control | dose: 200.0 mg/kg/injection, schedule: Q01DX001 (ip), vehicle: saline 94 % of control | dose: 200.0 mg/kg/injection, schedule: Q04DX003 (ip), vehicle: saline 96 % of control

CC(C)OC1CC(C)(O)Cc2cc3c(c(O)c21)C(=O)c1c(O)cc2c(c1C3=O)OC1OC2(C)C(O)C(N(C)C)C1O (configuration not stated)
inactive: dose: 2.0 mg/kg/injection, schedule: Q01DX009 (ip), vehicle: other 101 % of control | dose: 4.0 mg/kg/injection, schedule: Q01DX009 (ip), vehicle: other 120 % of control | dose: 8.0 mg/kg/injection, schedule: Q01DX009 (ip), vehicle: other 106 % of control | dose: 16.0 mg/kg/injection, schedule: Q01DX009 (ip), vehicle: other 87 % of control

CCOC(=O)C1(C)C(=O)C=C(c2ccccc2)CC1c1ccccc1 (configuration not stated)
inactive: dose: 50.0 mg/kg/injection, schedule: Q01DX005 (ip), vehicle: saline with Tween-80 95 % of control | dose: 100.0 mg/kg/injection, schedule: Q01DX005 (ip), vehicle: saline with Tween-80 100 % of control | dose: 200.0 mg/kg/injection, schedule: Q01DX005 (ip), vehicle: saline with Tween-80 95 % of control

O=C(O)CSCCCCCSCC(=O)O
inactive: [6] 105 % of control | [7] 106 % of control | [8] 106 % of control

c1ccc(C2=NNC(c3ccccc3)=NN2)cc1
inactive: dose: 0.78 mg/kg/injection, schedule: Q01DX009 (ip), vehicle: saline with Tween-80 107 % of control | dose: 1.56 mg/kg/injection, schedule: Q01DX009 (ip), vehicle: saline with Tween-80 95 % of control | dose: 3.12 mg/kg/injection, schedule: Q01DX009 (ip), vehicle: saline with Tween-80 89 % of control | dose: 25.0 mg/kg/injection, schedule: Q01DX009 (ip), vehicle: saline with Tween-80 93 % of control | [1] 100 % of control | dose: 50.0 mg/kg/injection, schedule: Q04DX003 (ip), vehicle: Klucel (hydroxypropylcellulose) (HPC) 97 % of control | [2] 90 % of control | dose: 100.0 mg/kg/injection, schedule: Q04DX003 (ip), vehicle: Klucel (hydroxypropylcellulose) (HPC) 104 % of control | dose: 200.0 mg/kg/injection, schedule: Q04DX003 (ip), vehicle: Klucel (hydroxypropylcellulose) (HPC) 97 % of control | dose: 400.0 mg/kg/injection, schedule: Q04DX003 (ip), vehicle: Klucel (hydroxypropylcellulose) (HPC) 94 % of control
